US20170246468A1, “METHODS AND SYSTEMS FOR CONTROLLING OR TUNING THE ELECTRIC FIELD GENERATED IN SKIN OR TISSUE DURING COLD PLASMA SKIN TREATMENTS” (EP Technologies LLC, priority 2016, published 2017)

Tests used:
[1] = transport through open pores in the SC of a plasma treated area; settings: applied more than 5 minutes after plasma treatment
[2] = plasmaporation-enhanced transdermal delivery across ex vivo porcine skin; type: in vitro ADME
From the text: 27, 2013 and Sep. 29, 2013 incorporated herein. Others devices and techniques are described in U.S. Non-Provisional application Ser. No. 14/564,717 filed on Dec. 9, 2014, U.S. Non-Provisional application Ser. No. 14/610,467 filed on Jan. 30, 2015, and U.S. Non-Provisional application Ser. No. 14/967,512 filed on Dec. 14, 2015. All of these applications are incorporated by reference herein in their entirety.

transport through the SC when applied after 5 minutes [1] | time of transdermal delivery of topically applied molecules across skin with plasmaporation ([2]; topically applied) | Substance | skin damage [2]
no longer passed through the SC | – | Dextran [10 kDa Dextran] | –
– | ≤ 15 min | dextran | without creating skin damage
